The subject of test [1] is Sweetpotato Whitefly Crawler (Bemisia tabaci) (BEMITA). Kind of test: Bioassay on Sweetpotato Whitefly Crawler, cotton plant foliar spray. It is filed as in vivo. The note with it: 200 ppm spray on cotton plants, graded after 8-9 days, live nymphs, Abbott's correction, read-out: BEMITA rating (% Control of Mortality). An excerpt:
Example B Bioassays on Sweetpotato Whitefly Crawler (Bemisia tabaci) (BEMITA.)
Cotton plants grown in 3-inch pots, with 1 small (3-5 cm) true leaf, were used at test substrate. The plants were placed in a room with whitefly adults. Adults were allowed to deposit eggs for 2-3 days. After a 2-3 day egg-laying period, plants were taken from the adult whitefly room. Adults were blown off leaves using a hand-held Devilbliss sprayer (23 psi). Plants with egg infestation (100-300 eggs per plant) were placed in a holding room for 5-6 days at 82° F. and 50% RH for egg hatch and crawler stage to develop. Four cotton plants were used for each treatment. Compounds (2 mg) were dissolved in 1 mL of acetone solvent, forming stock solutions of 2000 ppm. The stock solutions were diluted 10× with 0.025% Tween 20 in water to obtain a test solution at 200 ppm. A hand-held Devilbliss sprayer was used for spraying a solution to both sides of cotton leaf until runoff. Reference plants (solvent check) were sprayed with the diluent only. Treated plants were held in a holding room for 8-9 days at approximately 82° F. and 50% RH prior to grading. Evaluation was conducted by counting the number of live nymphs per plant under a microscope.

The test system of test [2] is Green Peach Aphid (Myzus persicae) (MYZUPE). Kind of test: Bioassay on Green Peach Aphid (GPA), cabbage seedling foliar spray. In kind it is in vivo. Particulars: 72 h, 200 ppm spray on cabbage seedlings, graded after three days, live aphids, Abbott's correction, read-out: MYZUPE rating (% Control of Mortality). The method, then: Example A Bioassays on Green Peach Aphid (“GPA”) (Myzus persicae) (MYZUPE.)
Several molecules disclosed herein were tested against GPA using procedures described below.
Cabbage seedling grown in 3-in pots, with 2-3 small (3-5 cm) true leaves, were used as test substrate. The seedlings were infested with […] (wingless adult and nymph stages) one day prior to chemical application. Four posts with individual seedlings were used for each treatment. Test compounds (2 mg) were dissolved in 2 mL of acetone/methanol (1:1) solvent, forming stock solutions of 1000 ppm test compound. The stock solutions were diluted 5× with 0.025% Tween 20 in water to obtain the solution at 200 ppm test compound. A hand-held aspirator-type sprayer was used for spraying a solution to both sides of the cabbage leaves until runoff. Reference plants (solvent check) were sprayed with the diluent only containing 20% by volume acetone/methanol (1:1) solvent. Treated plants were held in a holding room for three days at approximately 25° C. and ambient relative humidity (RH) prior to grading. Evaluation was conducted by counting the number of live aphids per plant under a microscope. Percent Control was measured by using Abbott's correction formula (W. S. Abbott, “A Method of Computing the Effectiveness of an Insecticide” J. Econ. Entomol 18 (1925), pp. 265-267) as follows. […]

Regarding `CCN(C(=O)CCSCCC(F)(F)F)c1cn(-c2cccnc2)nc1Cl` [Compound 2-11, N-(3-chloro-1-(pyridin-3-yl)-1H-pyrazol-4-yl)-N-ethyl-3-((3,3,3-trifluoropropyl)thio)propanamide], the mortality at 200 ppm in test [1] and in test [2] was 80 to 100% throughout.

As to `CCN(C(=O)CC[S+]([O-])CCC(F)(F)F)c1cn(-c2cccnc2)nc1Cl` (stereo not shown) [Compound 2-12, N-(3-chloro-1-(pyridin-3-yl)-1H-pyrazol-4-yl)-N-ethyl-3-((3,3,3-trifluoropropyl)sulfoxo)propanamide], the mortality at 200 ppm in test [1] and in test [2] was 80 to 100% each time.

By mortality is commonly meant the percentage killed.

Values taken from patent publication US9422265B2, “Process for the preparation of 3-(3-chloro-1H-pyrazol-1-yl)pyridine” (Dow AgroSciences LLC, priority 2014, dated 2016).
